The results in this text go back to BindingDB's records for PubMed 35777718 (Wuxi Apptec, 2022).

A short description of the test: Inhibition of Kir2.1 (unknown origin).

A word on the IC50: it is the midpoint of a concentration-inhibition curve. Consider `C[C@]1(CN2Cc3nc(-c4ccc(F)cc4)sc3C2)CN=C(N)O1`, for which the half-inhibitory concentration (IC50) is > 13.3 µM.

`C[C@]1(CN2Cc3nc(-c4ccc(F)cc4)sc3C2)Cn2cc([N+](=O)[O-])nc2O1`: the IC50 was > 40 µM.
